In one experiment the test system is huPPARα. In words: Cotransfection assay in CV-1 cells, huPPARα (GAL4 chimeric system). The format is cell-based, human. The following applies: luciferase reporter, relative to PPARα agonist reference molecule. The protocol: (§1) DNA-dependent binding (ABCD binding) was carried out using SPA technology with PPAR receptors. Tritium-labeled PPARγ and PPARα agonists were used as radioligands for generating displacement curves and IC50 values with compounds of the invention. Cotransfection assays were carried out in CV-1 cells. The reporter plasmid contained an acylCoA oxidase (AOX) PPRE and TK promoter upstream of the luciferase reporter cDNA. Appropriate PPARs and RXRα were constitutively expressed using plasmids containing the CMV promoter. For PPARα and PPARβ, interference by endogenous PPARγ in CV-1 cells was an issue. In order to eliminate such interference, a GAL4 chimeric system was used in which the DNA binding domain of the transfected PPAR was replaced by that of GAL4, and the GAL4 response element was utilized in place of the AOX PPRE. Cotransfection efficacy was determined relative to PPARα agonist and PPARβ agonist reference molecules. Efficacies were determined by computer fit to a concentration-response curve, or in some cases at a single high concentration of agonist (10 μM). For binding or cotransfection studies with receptors other than PPARs, similar assays were carried out using appropriate ligands, receptors, reporter constructs, etc., for that particular receptor.
(§2) These studies were carried out to evaluate the ability of compounds of the invention to bind to and/or activate various nuclear transcription factors, particularly huPPARα (“hu” indicates “human”) and huPPARγ. These studies provide in vitro data concerning efficacy and selectivity of compounds of the invention. Furthermore, binding and cotransfection data for compounds of the invention were compared with corresponding data for marketed compounds that act on either huPPARα or huPPARγ.
(In general: Reporter assays use an easily measured gene product as a stand-in for the process of interest.)

A further experiment relates to db/db mice. In words: Evaluation of glucose levels in db/db mice. Format: in vivo. The conditions noted are these: Mus musculus, 168 h; 30 mg/kg daily oral gavage for 7 days; 100% = glucose not different from lean values; read-out: Glucose Normalisation. Here is the method:
After an acclimation period of 2 weeks, animals were individually identified by ear notches, weighed, and bled via the tail vein for determination of initial glucose levels. Blood was collected (100 μl) from unfasted animals by wrapping each mouse in a towel, cutting the tip of the tail with a scalpel, and milking blood from the tail into a heparinized capillary tube (Fisher) balanced on the edge of the bench. Sample was discharged into a heparinized microtainer with gel separator (VWR) and retained on ice. Plasma was obtained after centrifugation at 4° C. and glucose measured immediately. Remaining plasma was frozen until the completion of the experiment, when glucose and triglycerides were assayed in all samples. Animals were grouped based on initial glucose levels and body weights. Beginning the following morning, mice were dosed daily by oral gavage for 7 days using a 20 gauge, 1½″ curved disposable feeding needle. […] On day 7, mice were weighed and bled (tail vein) 3 hours after dosing. Twenty-four hours after the 7th dose (i.e., day 8), animals were bled again (tail vein). Samples obtained from conscious animals on days 0, 7 and 8 were assayed for glucose. After the 24 hour bleed, animals were weighed and dosed for the final time. Three hours after dosing on day 8, animals were anesthetized by inhalation of isoflurane and blood obtained via cardiac puncture (0.5-0.7 ml). Whole blood was transferred to serum separator tubes, chilled on ice and permitted to clot. Serum was obtained after centrifugation at 4° C. and frozen until analysis for compound levels. After sacrifice by cervical dislocation, the liver, heart and epididymal fat pads were excised and weighed.
The absorbance of the dye produced is linearly related to the analyte in the sample. The assays were further modified in our laboratory for use in a 96 well format. […] An additional aliquot of sample, pipetted to a third well and diluted in 200 μl water, provided a blank for each specimen. […] Sample absorbances were compared to a standard curve (100-800, 10-500, and 100-400 mg/dl for glucose, triglycerides and total cholesterol, respectively). […] All samples from an experiment were assayed at the same time to minimize inter-assay variability.

The next experiment deals with Hu apoAI transgenic mice. In words: Evaluation of triglyceride and cholesterol levels in Hu apoAI transgenic mice. The format is in vivo. The conditions noted are these: Mus musculus, 168 h, 30 mg/kg daily oral gavage for 7 days; for change in vivo at 30 mg/kg: pooled sera, read-out: % HDLc Increase (serum, FPLC area under the curve, over vehicle); for inhibition in vivo at 30 mg/kg: serum 3 hours after dosing on day 7, read-out: % Triglyceride Decrease (serum, over mice receiving vehicle). Here is the method:
After an acclimation period of 2 weeks, animals were individually identified by ear notches, weighed, and assigned to groups based on body weight. Beginning the following morning, mice were dosed daily by oral gavage for 7 days using a 20 gauge, 11⁄2 curved disposable feeding needle (Popper & Sons). […] Prior to termination on day 7, mice were weighed and dosed. Three hours after dosing, animals were anesthetized by inhalation of isoflurane (2-4%; Abbott Laboratories, Chicago, Ill.) and blood obtained via cardiac puncture (0.7-1.0 ml). Whole blood was transferred to serum separator tubes (Vacutainer SST), chilled on ice, and permitted to clot. Serum was obtained after centrifugation at 4° C. and frozen until analysis for triglycerides, total cholesterol, compound levels, and serum lipoprotein profile by fast protein liquid chromatography (FPLC) coupled to an inline detection system. After sacrifice by cervical dislocation, the liver, heart and epididymal fat pads were excised and weighed. […] The percentage decrease in triglyceride serum levels in mice receiving a compound of the invention over mice receiving vehicle are reported in Table 2. […] The absorbance of the dye produced is linearly related to the analyte in the sample. The assays were further modified in our laboratory for use in a 96 well format. […] An additional aliquot of sample, pipetted to a third well and diluted in 200 μl water, provided a blank for each specimen. […] All samples from an experiment were assayed at the same time to minimize inter-assay variability. Serum lipoproteins were separated and cholesterol quantitated with an in-line detection system. […] The change in voltage corresponding to change in cholesterol concentration was plotted vs time and the area under the curve corresponding to the elution of VLDL, LDL and HDL was calculated using Perkin Elmer Turbochrome software.

Another experiment deals with T1, huPPARγ (Homo sapiens, UniProt P37231).
T1 sequence (P37231 1-505): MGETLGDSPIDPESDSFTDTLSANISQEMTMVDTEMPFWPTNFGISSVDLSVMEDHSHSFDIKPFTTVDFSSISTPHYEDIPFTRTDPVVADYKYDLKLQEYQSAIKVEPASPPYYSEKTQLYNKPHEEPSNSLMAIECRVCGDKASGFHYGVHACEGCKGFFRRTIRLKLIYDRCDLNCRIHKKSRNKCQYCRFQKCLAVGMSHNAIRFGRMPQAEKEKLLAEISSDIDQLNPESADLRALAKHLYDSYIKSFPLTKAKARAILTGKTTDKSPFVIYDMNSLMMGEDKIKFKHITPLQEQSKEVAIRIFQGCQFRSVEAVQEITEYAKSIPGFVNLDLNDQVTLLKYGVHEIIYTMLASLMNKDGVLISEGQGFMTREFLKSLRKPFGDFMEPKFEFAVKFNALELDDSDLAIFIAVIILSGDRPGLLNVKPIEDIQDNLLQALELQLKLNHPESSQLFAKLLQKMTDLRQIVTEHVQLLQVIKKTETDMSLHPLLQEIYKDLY
T1 sequence (P19793 1-462 partner): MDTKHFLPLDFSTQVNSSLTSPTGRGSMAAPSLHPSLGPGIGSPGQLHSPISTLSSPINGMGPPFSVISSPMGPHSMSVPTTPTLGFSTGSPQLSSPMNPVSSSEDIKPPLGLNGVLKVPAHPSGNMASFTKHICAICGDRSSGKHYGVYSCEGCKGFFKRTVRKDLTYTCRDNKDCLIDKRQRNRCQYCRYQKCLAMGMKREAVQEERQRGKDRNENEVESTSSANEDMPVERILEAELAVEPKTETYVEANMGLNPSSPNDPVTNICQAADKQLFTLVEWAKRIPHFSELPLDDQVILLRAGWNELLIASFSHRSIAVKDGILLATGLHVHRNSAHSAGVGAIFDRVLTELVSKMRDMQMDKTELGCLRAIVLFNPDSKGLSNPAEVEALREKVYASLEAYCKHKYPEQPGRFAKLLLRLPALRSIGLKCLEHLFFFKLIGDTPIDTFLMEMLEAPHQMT
In words: Cotransfection assay in CV-1 cells, huPPARγ. Format: cell-based. More on the design: expressed in transfected cells; host or cells: CV-1 cells. The conditions noted are these: AOX PPRE luciferase reporter, relative to agonist reference molecule. Here is the method:
as §1, with “Tritium-labeled PPARγ and PPARα agonists were used as radioligands for generating displacement curves and IC50 values with compounds of the invention.” left out, “For PPARα and PPARβ, interference by endogenous PPARγ in CV-1 cells was an issue.” left out, “Cotransfection efficacy was determined relative to PPARα agonist and PPARβ agonist reference molecules.” left out
as §2

On to `Cc1c(C)c2c(c(C)c1O)CCC(C)(COc1ccc(CC3SC(=O)NC3=O)cc1)O2` (stereo not drawn) [Troglitazone, reference compound], for which the “huPPARα CTF Efficacy” value in the experiment with huPPARα is 0%.
As to `CCCc1cc(OCCc2nc(-c3ccc(-c4ccccc4)cc3)oc2C)ccc1OCC(=O)O` [Example 62, {4-[2-(2-Biphenyl-4-yl-5-methyl-oxazol-4-yl)-ethoxy]-2-propyl-phenoxy}-acetic acid], the figures for the inhibition in vivo at 30 mg/kg with db/db mice and in the experiment with Hu apoAI transgenic mice were 36% and 45.5%, respectively. In addition, in the experiment on Hu apoAI transgenic mice, the change in vivo at 30 mg/kg turned out to be 56%.
As for `Cc1cc(OCCc2nc(-c3ccc(-c4ccccc4)cc3)oc2C)ccc1OC(C)(C)C(=O)O` [Example 24, 2-{4-[2-(2-Biphenyl-4-yl-5-methyloxazol-4-yl)-ethoxy]-2-methylphenoxy}-2-methylpropionic acid], the inhibition in vivo at 30 mg/kg in the experiment with db/db mice is 55%. Further, in the experiment on Hu apoAI transgenic mice, the change in vivo at 30 mg/kg stood at 72% and the inhibition in vivo at 30 mg/kg is 62.3%.
In the case of `Cc1oc(-c2ccc(-c3cccc4ccccc34)cc2)nc1CCOc1ccc(OC(C)(C)C(=O)O)cc1` [Example 8, 2-Methyl-2-(4-{2-[5-methyl-2-(4-naphthalen-1-ylphenyl)oxazol-4-yl]ethoxy}phenoxy)propionic acid], in the experiment on db/db mice, the inhibition in vivo at 30 mg/kg amounted to 19%. In the experiment on Hu apoAI transgenic mice, the change in vivo at 30 mg/kg was 41% and the inhibition in vivo at 30 mg/kg was 31.8%.
For `Cc1oc(-c2cccc(-c3ccccc3)c2)nc1CCOc1ccc(OC(C)(C)C(=O)O)c2c1CCCC2` [Example 51, 2-{4-[2-(2-Biphenyl-3-yl-5-methyloxazol-4-yl)-ethoxy]-5,6,7,8-tetrahydronaphthalen-1-yloxy}-2-methyl propionic acid] the same measures were 31%, 53% and 41.6%.
On to `Cc1oc(-c2cccc(-c3ccccc3)c2)nc1CCOc1ccc(OC(C)(C)C(=O)O)c2ccccc12` [Example 49, 2-{4-[2-(2-Biphenyl-3-yl-5-methyloxazol-4-yl)ethoxy]naphthalen-1-yloxy}-2-methyl propionic acid], for which, in the experiment on db/db mice, the inhibition in vivo at 30 mg/kg was 39%. In addition, in the experiment with Hu apoAI transgenic mice, the change in vivo at 30 mg/kg worked out at 34% and the inhibition in vivo at 30 mg/kg was found to be 48.7%.
Consider `CC(C)(Oc1ccc(C(=O)c2ccc(Cl)cc2)cc1)C(=O)O` [Fenofibric acid, reference compound], for which the “huPPARα CTF Efficacy” value with huPPARα is 16%. Also, the “huPPARγ CTF Efficacy” value at huPPARγ is recorded as 0%.
